Laboratory results reported in patent US6610655B2, “Pentapeptide with specific conformation, its production and use” (Takeda Chemical Industries, Inc., priority 1994, dated 2003).
Where a SMILES comes first, the peptide text is derived from it. [ ]: non-standard residue; d: D form. The star is where a group is joined. Bn = c1ccc(C*)cc1

biological target: T1, NK2 receptor (Bos taurus, UniProt P05363); assay: Binding inhibiting activity on NK2 receptor (125I-NKA, membrane fraction of bovine third stomach); details: 125I-neurokinin A, membrane fraction from inner wall of bovine third stomach, 25° C., 3 hours
T1 construct: membrane fraction containing the receptor was prepared from the inner wall of the bovine third stomach; tissue Kyoto Chuo Chikusan Fukuseibutsu Oroshi Kyokai; host or cells: inner wall of the bovine third stomach (membrane fraction)
T1 sequence (P05363 1-384): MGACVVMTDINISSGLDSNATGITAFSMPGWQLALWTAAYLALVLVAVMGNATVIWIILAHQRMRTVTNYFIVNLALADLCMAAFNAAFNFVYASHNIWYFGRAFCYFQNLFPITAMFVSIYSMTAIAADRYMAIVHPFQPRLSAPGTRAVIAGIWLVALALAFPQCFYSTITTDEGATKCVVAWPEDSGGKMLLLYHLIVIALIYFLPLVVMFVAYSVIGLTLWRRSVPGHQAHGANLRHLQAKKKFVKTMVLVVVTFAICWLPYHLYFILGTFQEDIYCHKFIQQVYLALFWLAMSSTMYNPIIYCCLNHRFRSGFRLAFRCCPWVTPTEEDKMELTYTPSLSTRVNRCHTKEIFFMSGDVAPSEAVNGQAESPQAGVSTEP
Description: The method of Paul L. M. Van Giersbergen et al. [Proc. Natl. Acad. Sci. U.S.A., 88, 1661 (1991) was modified for this assay. The membrane fraction containing the receptor was prepared from the inner wall of the bovine third stomach (purchased from Kyoto Chuo Chikusan Fukuseibutsu Oroshi Kyokai).
The inner wall of the bovine third stomach stored at −80° C. was cut to 1 cm×1 cm or less, and disrupted in 3 liters/kg of 50 mM Tris-HCl buffer (pH 7.4) supplemented with 120 mM sodium chloride, 5 mM potassium chloride, 0.02% BSA and 5% sucrose, using a polytron homogenizer (Kinematika, Germany). Then, the disrupted product was centrifuged at 1,000×g for 10 minutes. The supernatant was further centrifuged at 45,000×g for 20 minutes. The precipitate was suspended in 200 ml of 50 mM Tris-HCl buffer (pH 7.4) supplemented with 300 mM potassium chloride, 10 mM ethylenediaminetetraacetic acid, 0.1 mM […] and 0.02% BSA, and gently stirred under ice cooling for 60 minutes. The suspension was centrifuged at 45,000×g for 20 minutes. The precipitate was washed with 200 ml of 50 mM Tris-HCl buffer (pH 7.4), and stored in the frozen state at −40° C. as a receptor sample.
This sample was suspended in a reaction buffer solution [50 mM Tris-HCl buffer (pH 7.4), 0.02% bovine serum albumin and 4 mM manganese chloride] so as to give a protein concentration of 0.7 mg/ml, and 100 μl thereof was used for reaction. A test sample and ^125I-NKA (0.61 KBq, ^125I-neurokinin A, 81.4 TBq/mmol, Du Pont/NEN Research Products, U.S.A.) were also added, and reacted in 0.2 ml of the reaction buffer solution at 25° C. for 3 hours. The reaction mixture was rapidly filtered through a glass filter (GF/B, Whatman, U.S.A.) using a cell harvester (Type 290PHD, Cambridge Technology Inc., U.S.A.) to terminate the reaction, and washed 3 times with 250 μl of 50 mM Tris-HCl buffer (pH 7.4) supplemented with 0.02% bovine serum albumin. The radioactivity left on the filter was measured with a gamma-ray counter. […]

Row | IC50 | SMILES
1 | 27 nM | CC(C)C[C@@H]1NC(=O)[C@@H](CC(C)C)NC(=O)[C@H](Cc2c[nH]c3ccccc23)NC(=O)[C@@H](CC(=O)O)NC(=O)[C@@H](Cc2c[nH]c3ccccc23)NC1=O [Cyclo(-D-Asp-Trp-D-Leu-Leu-D-Trp-)] (cyclo([dD]W[dL]L[dW]))
2 | 1500 nM | CC(C)C[C@@H]1NC(=O)[C@@H](CC(C)C)NC(=O)[C@H]([C@@H](C)OCc2ccccc2)NC(=O)[C@@H](CCC(=O)O)NC(=O)[C@@H](Cc2c[nH]c3ccccc23)NC1=O [Cyclo(-D-Glu-Thr(Bzl)-D-Leu-Leu-D-Trp-)] (cyclo([dE]T(Bn)[dL]L[dW]))
3 | 580 nM | CC(C)C[C@@H]1NC(=O)[C@@H](CC(C)C)NC(=O)[C@H](COCc2ccccc2)NC(=O)[C@@H](CCC(=O)O)NC(=O)[C@@H](Cc2c[nH]c3ccccc23)NC1=O [Cyclo(-D-Glu-Ser(Bzl)-D-Leu-Leu-D-Trp-)] (cyclo([dE]S(Bn)[dL]L[dW]))
